{"source": "patent US11788147B2", "about": "“Markers of triple-negative breast cancer and uses thereof” (Vanderbilt University, priority 2011, dated 2023)", "key": {"LAR TNBC cell lines": {"test_system": "LAR TNBC cell lines", "assay": "Cell proliferation/viability assay (alamarBlue) and IC50 determination", "format": "cell-based, human", "details": "LAR lines, 72 hours", "experimental": "Cell proliferation/viability assays and IC50 determinations. All cell lines and culture conditions used can be found in Supplemental Methods (Table 5). Short tandem repeat (STR) DNA fingerprinting analysis was performed on all TNBC cell lines used in this study (Cell Line Genetics). […] Breast cancer cell lines and HMECs were seeded (3,000-10,000 cells) in quadruplicate wells in 96-well plates. […] Medium was then replaced with either fresh medium (control) or medium containing half-log serial dilutions of the following drugs: 0.3-30 μM olaparib (ChemieTek), 0.3-30 μM veliparib (ChemieTek), 1-100 μM bicalutamide (IPR Pharmaceutical), 0.3-30 μM cisplatin (APP Pharmaceutical), 3-300 nM NVP-BEZ235 (Chemdea), 10-1000 nM 17-DMAG (ChemieTek), and 0.1-10 μM dasatinib (LC Laboratories). Viability was determined from measuring fluorescent intensity after metabolic reduction of alamarBlue in the presence/absence of the drug after 72 hours. Viability assays were performed in triplicate, and replicates were normalized to untreated wells. […] For analysis of cell-line drug assays, data generated from the different cell lines representative of TNBC subtypes were compared using the nonparametric Mann-Whitney U test. All analyses and graphic representations were performed using Prism software (version 4.0c; GraphPad Software), and values are represented as the mean±SEM."}, "[1]": {"test_system": "HCC1806 and MDA-MB-468 xenograft tumors", "assay": "Xenograft tumor studies (Example 1), basal-like", "format": "in vivo, mice", "details": "cisplatin i.p. 8 mg/kg/wk, approximately 3 weeks, relative to vehicle control; P<0.0001", "experimental": "Xenograft tumor studies. Five-week-old female athymic nude-Foxnlnu mice (Harlan Sprague-Dawley) were injected (s.c.) with either approximately 5×10^6 (CAL-51, HCC1806, MDA-MB-468, and SUM185PE) or approximately 10×10^6 (CAL-148 and SUM159PT) cells suspended in medium (200 μl) into each flank using a 22-gauge needle. The protocols describing the process of xenograft tumor formation in athymic mice were reviewed and approved by the Vanderbilt Institutional Review Board. Once tumors reached a volume of 25-50 mm^3, mice were randomly allocated to treatment or vehicle arms. Treatments included bicalutamide per oral (100 mg/kg/d), cisplatin i.p. (8 mg/kg/wk), or NVP-BEZ235 per oral (50 mg/kg/d) in 1:9 N-methylpyrolidone: PEG300. Tumor diameters were serially measured at the indicated times with digital calipers, and tumor volumes were calculated as width^2×length/2. Data points reflect the means and SEM for 16 tumors per treatment."}, "[2]": {"test_system": "heterogeneous TNBC patient population", "details": "neoadjuvant, single agent; cited from earlier work"}}, "data": [{"smiles": "N.N.[Cl][Pt][Cl]", "note": "[cisplatin]", "values": [{"measurement": "IC50", "setting": "LAR TNBC cell lines", "result": 15, "unit": "µM"}, {"measurement": "xenograft tumor growth", "setting": "[1]", "result": "significantly growth inhibited"}, {"measurement": "pCR", "setting": "[2]", "result": 21, "unit": "%"}]}]}
